Earlier results as cited in patent US20250017941A1, “METHODS OF TREATING NON-HODGKIN LYMPHOMA USING 2-(2,6-DIOXOPIPERIDIN-3-YL)-4-((2-FLUORO-4-((3-MORPHOLINOAZETIDIN-1-YL)METHYL)BENZYL)AMINO)ISOINDOLINE-1,3-DIONE” (Celgene Corporation, priority 2021, published 2025).
Where two headings read alike, the source gives them in different places.

Assays:
[1] = tested on: patients with FL who had received 2 or more prior systemic therapies
[2] = tested on: adult patients with CD20-positive indolent non-Hodgkin lymphoma refractory to rituximab
[3] = 53 patients with EZH2 wild-type status, 800 mg orally twice daily
[4] = tafasitamab in combination with lenalidomide, R/R DLBCL
[5] = tafasitamab in combination with lenalidomide, listed with the G3/4 events

CCN(c1cc(-c2ccc(CN3CCOCC3)cc2)cc(C(=O)NCc2c(C)cc(C)[nH]c2=O)c1C)C1CCOCC1 [Tazemetostat, N-[(1,2-dihydro-4,6-dimethyl-2-oxo-3-pyridinyl)methyl]-5-[ethyl (tetrahydro-2H-pyran-4-yl)amino]-4-methyl-4′-(4-morpholinylmethyl)-[1,1′-biphenyl]-3-carboxamide]
Grade 3/4 anemia, patients ([1]; 800 mg orally twice daily): 8% | Grade 3/4 neutropenia, patients ([1]; 800 mg orally twice daily): 7% | Grade 3/4 thrombocytopenia, patients ([1]; 800 mg orally twice daily): 7% | Serious AEs, patients ([1]; 800 mg orally twice daily): 30% | CR rate ([1]; 42 patients with EZH2 mutated status, 800 mg orally twice daily): 12% | ORR ([1]; 42 patients with EZH2 mutated status, tazemetostat 800 mg orally twice daily): 69% | CR rate [1, 3]: 4% | ORR [1, 3]: 34% | mDOR ([1]; EZH2 wild-type cohort, 800 mg orally twice daily): 13 months | most common AEs of all grades, frequency ([1]; fatigue, upper respiratory tract infection, nausea, abdominal pain and musculoskeletal pain): ≥ 20% | most common serious AEs, patients ([1]; general physical health deterioration, abdominal pain, pneumonia, sepsis and anemia): at least 2% | mDOR ([1]; patients with EZH2 mutated status, 800 mg orally twice daily): 10.9 months

Cn1c(CCCC(=O)O)nc2cc(N(CCCl)CCCl)ccc21 [bendamustine]
PFS (primary endpoint) ([2]; median follow-up 21.9 months (obinutuzumab plus bendamustine) and 20.3 months (bendamustine monotherapy)): 14.9 months | Febrile neutropenia, occurrence ([2]; per arm): uncommon | Grade 3/4 anemia, patients ([2]; per arm): 8% | Grade 3/4 neutropenia, patients ([2]; per arm): 26% | Grade 3/4 thrombocytopenia, patients ([2]; per arm): 15% | Serious AEs, patients ([2]; per treatment group): 33% | deaths due to adverse events, patients ([2]; per treatment group): 6%

tafasitamab: anti-CD19 monoclonal antibody; results are for the combination with lenalidomide
objective response rate (ORR) (patients with R/R DLBCL; tafasitamab 12 mg/kg intravenously in combination with lenalidomide 25 mg orally, R/R DLBCL, 81 participants): 60% | complete response (CR) rate (patients with R/R DLBCL; tafasitamab 12 mg/kg intravenously in combination with lenalidomide, R/R DLBCL, 81 participants): 34% | G3/4 febrile neutropenia, patients (patients with R/R DLBCL; [4]): 12% | G3/4 neutropenia, patients (patients with R/R DLBCL; [4]): 48% | Serious AEs, patients (patients with R/R DLBCL; [4]): 52% | Serious AEs: febrile neutropenia, patients (patients with R/R DLBCL; [4]): 6% | Serious AEs: pneumonia, patients (patients with R/R DLBCL; [4]): 6% | median duration of response (patients with R/R DLBCL; [4]): 21.7 months | anemia, patients (patients with R/R DLBCL; [5]): 7% | thrombocytopenia, patients (patients with R/R DLBCL; [5]): 17% | most common adverse events (AEs) of all grades, frequency (patients with R/R DLBCL; tafasitamab in combination with lenalidomide, neutropenia, fatigue, anemia, diarrhea, thrombocytopenia, cough, pyrexia, peripheral edema, rash, decreased appetite): ≥ 20%
